# Molecular target: human PDE4D catalytic domain (Homo sapiens (Human), UniProt Q08499)
# Assay: PDE4 Assay (TR-FRET, FAM-cAMP cleavage)
# Assay type: biochemical
# Settings: Table 16, Examples 277-296; read-out: PDE4 IC50 range
# Protocol: The human PDE4D catalytic domain (UniProt no. Q08499 [S380-L740]) was incubated with a mixture of non-labelled cAMP (cyclic adenosine monophosphate) and fluorescein amidite (FAM) conjugated cAMP and titrated test or reference Compound. Following brief incubation the enzymatic reaction was stopped by addition of binding buffer containing nanoparticles with immobilized trivalent metal ions capable of binding 1) AMP phospho groups and 2) terbium (Tb) donor fluorophores. Subsequent excitation of the Tb donor triggers time-resolved FRET to adjacent FAM acceptor molecules resulting in light emission. In the presence of a PDE4 inhibitor, AMP generation was reduced resulting in a lower fluorescence signal. The cAMP phosphodiester is not bound by the detection system.
# The results were calculated as the molar concentrations resulting in 50% inhibition of the substrate cleavage compared to controls samples, and are expressed as a range of IC50 (nM).
# Chain of human PDE4D catalytic domain (Q08499 380-740): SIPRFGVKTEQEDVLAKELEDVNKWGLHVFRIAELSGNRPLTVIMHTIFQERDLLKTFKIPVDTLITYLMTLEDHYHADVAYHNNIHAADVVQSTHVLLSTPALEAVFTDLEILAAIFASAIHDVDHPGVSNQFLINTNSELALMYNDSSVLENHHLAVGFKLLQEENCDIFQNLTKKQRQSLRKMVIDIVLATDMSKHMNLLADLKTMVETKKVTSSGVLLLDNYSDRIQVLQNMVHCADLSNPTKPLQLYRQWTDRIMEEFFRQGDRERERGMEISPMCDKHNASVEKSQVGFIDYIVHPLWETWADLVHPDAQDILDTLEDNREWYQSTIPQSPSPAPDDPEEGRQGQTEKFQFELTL
row,SMILES,IC50
1,"CCn1nc(C[C@@H](C)COC(=O)C2CCN(C)CC2)c2c1C(=O)NCC1(CCOCC1)C2 [Example 292, [(2R)-3-(1-ethyl-8-oxo-spiro[6,7-dihydro-4H-pyrazolo[3,4-c]azepine-5,4′-tetrahydropyran]-3-yl)-2-methyl-propyl] 1-methylpiperidine-4-carboxylate]",100 to 500 nM

# Same assay, conditions: Table 17, Examples 297-316; read-out: PDE4 IC50 range
row,SMILES,IC50
1,"CCn1nc(CC(C)(C)COC(=O)c2cnn(C)c2)c2c1C(=O)NCC1(CCOCC1)C2 [Example 299, [3-(1-ethyl-8-oxo-spiro[6,7-dihydro-4H-pyrazolo[3,4-c]azepine-5,4′-tetrahydropyran]-3-yl)-2,2-dimethyl-propyl] 1-methylpyrazole-4-carboxylate]",< 100 nM
2,"CCn1nc(CC(C)(C)COC(=O)c2ccn(C)n2)c2c1C(=O)NCC1(CCOCC1)C2 [Example 298, [3-(1-ethyl-8-oxo-spiro[6,7-dihydro-4H-pyrazolo[3,4-c]azepine-5,4′-tetrahydro-pyran]-3-yl)-2,2-dimethyl-propyl] 1-methylpyrazole-3-carboxylate]",< 100 nM

# Same assay, conditions: human PDE4D catalytic domain (UniProt Q08499 [S380-L740]); 50% inhibition of substrate cleavage; read-out: PDE4 IC50 range
row,SMILES,IC50
1,"CCn1nc(C[C@@H](C)COC(=O)c2ccc(C(=O)N3CCCC3)cc2)c2c1C(=O)NCC1(CCOCC1)C2 [Example 172, [(2R)-3-(1-ethyl-8-oxo-spiro[6,7-dihydro-4H-pyrazolo[3,4-c]azepine-5,4′-tetrahydropyran]-3-yl)-2-methyl-propyl] 4-(pyrrolidine-1-carbonyl)benzoate]",< 100 nM
2,"CCn1nc(C[C@@H](C)COC(=O)[C@H]2CC[C@H](O)CC2)c2c1C(=O)NCC1(CCOCC1)C2 [Example 146, [(2R)-3-(1-ethyl-8-oxo-spiro[6,7-dihydro-4H-pyrazolo[3,4-c]azepine-5,4′-tetrahydropyran]-3-yl)-2-methyl-propyl] 4-hydroxy-cyclohexanecarboxylate]",< 100 nM
3,"CCn1nc(CC(C)(C)COC(=O)c2cccc(C(=O)N3CCN(C)CC3)c2)c2c1C(=O)NCC1(CCOCC1)C2 [Example 233, [3-(1-ethyl-8-oxo-spiro[6,7-dihydro-4H-pyrazolo[3,4-c]azepine-5,4′-tetrahydro-pyran]-3-yl)-2,2-dimethyl-propyl] 3-(4-methyl-piperazine-1-carbonyl)-benzoate]",< 100 nM
4,"CCn1nc(CC(C)(C)COC(=O)c2cccc(C(=O)N3CCOCC3)c2)c2c1C(=O)NCC1(CCOCC1)C2 [Example 232, [3-(1-ethyl-8-oxo-spiro[6,7-dihydro-4H-pyrazolo[3,4-c]azepine-5,4′-tetrahydro-pyran]-3-yl)-2,2-dimethyl-propyl] 3-(morpholine-4-carbonyl)benzoate]",< 100 nM
5,"CCn1nc(CC(C)(C)COC(=O)c2cccc(S(=O)(=O)C(C)C)c2)c2c1C(=O)NCC1(CCOCC1)C2 [Example 206, [3-(1-ethyl-8-oxo-spiro[6,7-dihydro-4H-pyrazolo[3,4-c]azepine-5,4′-tetrahydropyran]-3-yl)-2,2-dimethyl-propyl] 3-isopropylsulfonylbenzoate]",< 100 nM
6,"CCn1nc(C[C@@H](C)COC(=O)c2ccc(S(=O)(=O)NC)cc2)c2c1C(=O)NCC1(CCOCC1)C2 [Example 158, [(2R)-3-(1-ethyl-8-oxo-spiro[6,7-dihydro-4H-pyrazolo[3,4-c]azepine-5,4′-tetrahydropyran]-3-yl)-2-methyl-propyl] 4-(methylsulfamoyl)benzoate]",< 100 nM
7,"CCn1nc(CCCOC(=O)c2cccc(C#N)c2)c2c1C(=O)NCC1(CCOCC1)C2 [Example 11, 3-(1-ethyl-8-oxo-spiro[6,7-dihydro-4H-pyrazolo[3,4-c]azepine-5,4′-tetrahydropyran]-3-yl) propyl 3-cyanobenzoate]",< 100 nM
8,"CCn1nc(C[C@@H](C)COC(=O)c2ccc(S(=O)(=O)N3CCN(C(C)=O)CC3)cc2)c2c1C(=O)NCC1(CCOCC1)C2 [Example 167, [(2R)-3-(1-ethyl-8-oxo-spiro[6,7-dihydro-4H-pyrazolo[3,4-c]azepine-5,4′-tetrahydropyran]-3-yl)-2-methyl-propyl] 4-(4-acetylpiperazin-1-yl)sulfonylbenzoate]",< 100 nM
9,"CCn1nc(CCCOC(=O)c2cccc(F)c2Cl)c2c1C(=O)NCC1(CCOCC1)C2 [Example 49, 3-(1-ethyl-8-oxo-spiro[6,7-dihydro-4H-pyrazolo[3,4-c]azepine-5,4′-tetrahydropyran]-3-yl)propyl 2-chloro-3-fluoro-benzoate]",< 100 nM
10,"CCn1nc(CCCOC(=O)c2ccc(C(F)(F)F)cc2Cl)c2c1C(=O)NCC1(CCOCC1)C2 [Example 88, 3-(1-ethyl-8-oxo-spiro[6,7-dihydro-4H-pyrazolo[3,4-c]azepine-5,4′-tetrahydro-pyran]-3-yl)propyl 2-chloro-4-(trifluoromethyl)benzoate]",< 100 nM
11,"CCn1nc(CCCOC(=O)c2ccc(C(F)(F)F)c(Cl)c2)c2c1C(=O)NCC1(CCOCC1)C2 [Example 86, 3-(1-ethyl-8-oxo-spiro[6,7-dihydro-4H-pyrazolo[3,4-c]azepine-5,4′-tetrahydro-pyran]-3-yl)propyl 3-chloro-4-(trifluoromethyl)benzoate]",< 100 nM
12,"CCn1nc(CC(C)(C)COC(=O)c2cccc(C(=O)N3CCCC3)c2)c2c1C(=O)NCC1(CCOCC1)C2 [Example 230, [3-(1-ethyl-8-oxo-spiro[6,7-dihydro-4H-pyrazolo[3,4-c]azepine-5,4′-tetrahydro-pyran]-3-yl)-2,2-dimethyl-propyl] 3-(pyrrolidine-1-carbonyl)benzoate]",< 100 nM
13,"CCn1nc(CCCOC(=O)c2ccc(Cl)c(F)c2)c2c1C(=O)NCC1(CCOCC1)C2 [Example 48, 3-(1-ethyl-8-oxo-spiro[6,7-dihydro-4H-pyrazolo[3,4-c]azepine-5,4′-tetrahydropyran]-3-yl)propyl 4-chloro-3-fluoro-benzoate]",< 100 nM
14,"CCn1nc(CCCOC(=O)c2cccc(Cl)c2OC)c2c1C(=O)NCC1(CCOCC1)C2 [Example 59, 3-(1-ethyl-8-oxo-spiro[6,7-dihydro-4H-pyrazolo[3,4-c]azepine-5,4′-tetrahydropyran]-3-yl)propyl 3-chloro-2-methoxy-benzoate]",< 100 nM
15,"CCc1ccc(C(=O)OCC(C)(C)Cc2nn(CC)c3c2CC2(CCOCC2)CNC3=O)cc1 [Example 195, [3-(1-ethyl-8-oxo-spiro[6,7-dihydro-4H-pyrazolo[3,4-c]azepine-5,4′-tetrahydropyran]-3-yl)-2,2-dimethyl-propyl] 4-ethylbenzoate]",< 100 nM
16,"CCn1nc(CCCOC(=O)c2ccc(C(F)(F)F)cc2)c2c1C(=O)NCC1(CCOCC1)C2 [Example 62, 3-(1-ethyl-8-oxo-spiro[6,7-dihydro-4H-pyrazolo[3,4-c]azepine-5,4′-tetrahydropyran]-3-yl)propyl 4-(trifluoromethyl)benzoate]",< 100 nM
17,"CCn1nc(C[C@@H](C)COC(=O)c2cccc(S(=O)(=O)C(C)C)c2)c2c1C(=O)NCC1(CCOCC1)C2 [Example 159, [(2R)-3-(1-ethyl-8-oxo-spiro[6,7-dihydro-4H-pyrazolo[3,4-c]azepine-5,4′-tetrahydropyran]-3-yl)-2-methyl-propyl] 3-isopropylsulfonylbenzoate]",< 100 nM
18,"CCn1nc(CCCOC(=O)c2cccc(C(N)=O)c2)c2c1C(=O)NCC1(CCOCC1)C2 [Example 113, 3-(1-ethyl-8-oxo-spiro[6,7-dihydro-4H-pyrazolo[3,4-c]azepine-5,4′-tetrahydropyran]-3-yl)propyl 3-carbamoylbenzoate]",< 100 nM

# Reference: patent US10793580B2, “Substituted pyrazoloazepin-8-ones and their use as phosphodiesterase inhibitors” (LEO Pharma A/S, priority 2016, dated 2020)
